Read-outs that look alike come from different tables or passages of the source.
Assays:
Format in all cases: cell-based, human
MDA-MB-231 cells = test: Cell proliferation experiment, MDA-MB-231
Description: (§1) Reagents: RPMI-1640 medium, McCoy's 5A medium, IMDM medium, MEM medium, L-15 medium, fetal bovine serum. Penicillin-Streptomycin double antibody, trypsin, etc., 2-mercaptoethanol, NEAA, pyruvate, etc.
(§2) The cells were cultured in conventional ways, and the cells should be passed at least 2 generations before plating. Cells at the logarithmic growth phase were collected, prepared into single cell suspensions and counted. The concentration of cells was adjusted to the desired concentration, and cells were inoculated into a 96-well cell culture plate at 100 μl per well. 100 μL of complete medium of the test compound were added to each well, set up 2 duplicate wells for each concentration, and diluted with a 5-fold gradient, and continued to culture for 72 h. All cells were subjected to IC50 test for corresponding samples. The experimental results are shown in Test Example 4.
(§3) The fluorescence intensity of each well was detected using the Alarm blue method, and IC50 was calculated.
(§4) IC50 was calculated according to the following formula:
(§5) Y=Max+(Min−Max)/[1+(X/IC50)×Slope]
(§6) wherein Min, Max and Slope represent the minimum, maximum and slope respectively.

Daudi cells = test: Cell proliferation experiment, Daudi; settings: Homo sapiens, Daudi, read-out: Inhibitory activity IC50 on Daudi
Description: as §1, §2, §3, §4, §5, §6

MV4;11 cells = test: Cell proliferation experiment (Alamar blue, 72 h), MV4;11; settings: Homo sapiens
Description: as §1, §2, §3, §4, §5, §6

NCIH82 cells = test: Cell proliferation experiment, NCI-H82; settings: Homo sapiens, NCI-H82, NCI-H82 cells; read-out: Inhibitory activity IC50 on NCI-H82
Description: as §1, §2, §3, §4, §5, §6

PC-3 = test: Cell proliferation experiment, PC-3; settings: read-out: Inhibitory activity IC50 on PC-3
Description: as §1, §2, §3, §4, §5, §6

[1] = Homo sapiens, MDA-MB-231, MDA-MB-231 cells, read-out: Inhibitory activity IC50 on MDA-MB-231
[2] = MV4-11, MV4;11 cells, read-out: Inhibitory activity IC50 on MV4;11

SMILES	IC50 (MDA-MB-231 cells; [1])	IC50 (Daudi cells; Daudi cells)	IC50 (MV4;11 cells; [2])	IC50 (NCIH82 cells)	IC50 (PC-3; Homo sapiens, PC-3, PC-3 cells)	other results
CC[C@@H]1C(=O)N(C)c2cnc(Nc3ccc(C(=O)N[C@H]4CC[C@@H](NC5CCN(CCC#Cc6cccc7c6CN(C6CCC(=O)NC6=O)C7=O)CC5)CC4)cc3OC)nc2N1C1CCCC1 (stereo partly shown) [UB-180934]	100 to 1000 nM	10 to 100 nM	10 to 100 nM			IC50 (MV4;11 cells; MV4-11, 72 h, MV4;11 cells, 72 h, read-out: Inhibitory activity IC50 of tested compounds on MV4;11 cells): ≤ 100 nM
CC[C@@H]1C(=O)N(C)c2cnc(Nc3ccc(C(=O)NCCCOCCCN(CCC#Cc4cccc5c4CN(C4CCC(=O)NC4=O)C5=O)C(=O)OC(C)C(C)SSC[C@@H](NC(=O)[C@@H](CC(=O)O)NC(=O)[C@@H](CC(=O)O)NC(=O)[C@@H](CCCNC(=N)N)NC(=O)[C@@H](CC(=O)O)NC(=O)CC[C@H](NC(=O)c4ccc(NCc5cnc6nc(N)[nH]c(=O)c6n5)cc4)C(=O)O)C(=O)O)cc3OC)nc2N1C1CCCC1 (stereo partly shown) [UB-180939]						IC50 (MDA-MB-231 cells; Homo sapiens, MDA-MB-231, read-out: Inhibitory activity IC50 on MDA-MB-231): > 1000 nM; IC50 (Daudi cells): 100 to 1000 nM; IC50 (MV4;11 cells; MV4-11, read-out: Inhibitory activity IC50 on MV4;11): 10 to 100 nM
CC[C@@H]1C(=O)N(C)c2cnc(Nc3ccc(-c4cn(CCCCCCNCCC#Cc5cccc6c5CN(C5CCC(=O)NC5=O)C6=O)nn4)cc3OC)nc2N1C1CCCC1 (stereo partly shown) [UB-180949]	10 to 100 nM	10 to 100 nM	< 10 nM			
O=C1CCC(N2Cc3cc(NC(=O)CCOCCOCCOCCn4cc(-c5ccc(Nc6ncc7c(n6)-c6ccc(Cl)cc6C(c6c(F)cccc6F)=NC7)cc5)nn4)ccc3C2=O)C(=O)N1 (stereo not shown) [UB-180950]	> 1000 nM	100 to 1000 nM	< 10 nM	100 to 1000 nM		
CC[C@@H]1C(=O)N(C)c2cnc(Nc3ccc(-c4cn([C@H]5CC[C@@H](NCCCCCC#Cc6cccc7c6CN(C6CCC(=O)NC6=O)C7=O)CC5)nn4)cc3OC)nc2N1C1CCCC1 (stereo partly shown) [UB-180977]	< 10 nM	10 to 100 nM	< 10 nM			
O=C1CCC(N2Cc3cc(NC(=O)CCCCCCCCCNCCn4cc(-c5ccc(Nc6ncc7c(n6)-c6ccc(Cl)cc6C(c6c(F)cccc6F)=NC7)cc5)nn4)ccc3C2=O)C(=O)N1 (stereo not shown) [UB-180986]	> 1000 nM	100 to 1000 nM	10 to 100 nM	100 to 1000 nM		
CC[C@@H]1C(=O)N(C)c2cnc(Nc3ccc(-c4cn([C@H]5CC[C@@H](NCCOCCCC#Cc6ccc7c(c6)CN(C6CCC(=O)NC6=O)C7=O)CC5)nn4)cc3OC)nc2N1C1CCCC1 (stereo partly shown) [UB-180993]	10 to 100 nM	10 to 100 nM	10 to 100 nM			
CC[C@@H]1C(=O)N(C)c2cnc(Nc3ccc(-c4cn([C@H]5CC[C@@H](NCCCOCCC#Cc6cccc7c6CN(C6CCC(=O)NC6=O)C7=O)CC5)nn4)cc3OC)nc2N1C1CCCC1 (stereo partly shown) [UB-180998]	10 to 100 nM	10 to 100 nM	< 10 nM			
CC[C@@H]1C(=O)N(C)c2cnc(Nc3ccc(-c4cn([C@H]5CC[C@@H](NCCCOCCC#Cc6ccc7c(c6)CN(C6CCC(=O)NC6=O)C7=O)CC5)nn4)cc3OC)nc2N1C1CCCC1 (stereo partly shown) [UB-180999]	10 to 100 nM	10 to 100 nM	< 10 nM			
CC[C@@H]1C(=O)N(C)c2cnc(Nc3ccc(-c4cn([C@H]5CC[C@@H](NCCOCCC#Cc6ccc7c(c6)CN(C6CCC(=O)NC6=O)C7=O)CC5)nn4)cc3OC)nc2N1C1CCCC1 (stereo partly shown) [UB-181004]	10 to 100 nM	10 to 100 nM	< 10 nM			
O=C1CCC(N2Cc3c(NC(=O)CCNCCCOCCCCNC(=O)[C@]4(Cc5cccc(Nc6nccs6)n5)CC[C@@H](Oc5cccc(Cl)c5F)CC4)cccc3C2=O)C(=O)N1 (stereo partly shown) [UB-181030]		> 1000 nM	> 1000 nM	> 1000 nM		
CC[C@@H]1C(=O)N(C)c2cnc(Nc3ccc(-c4cn([C@H]5CC[C@@H](N(C)CCOCCC#Cc6cccc7c6CN(C6CCC(=O)NC6=O)C7=O)CC5)nn4)cc3OC)nc2N1C1CCCC1 (stereo partly shown) [UB-181045]	< 10 nM		< 10 nM		100 to 1000 nM	
CC[C@@H]1C(=O)N(C)c2cnc(Nc3ccc(-c4cn([C@H]5CC[C@@H](N(CCOCCC#Cc6cccc7c6CN(C6CCC(=O)NC6=O)C7=O)C(=O)CO)CC5)nn4)cc3OC)nc2N1C1CCCC1 (stereo partly shown) [UB-181063]	100 to 1000 nM		< 10 nM		100 to 1000 nM	
CC[C@@H]1C(=O)N(C)c2cnc(Nc3ccc(-c4cn([C@H]5CC[C@@H](NCCCOCC#Cc6cccc7c6CN(C6CCC(=O)NC6=O)C7=O)CC5)nn4)cc3OC)nc2N1C1CCCC1 (stereo partly shown) [UB-181089]	10 to 100 nM		10 to 100 nM		10 to 100 nM	
CC[C@@H]1C(=O)N(C)c2cnc(Nc3ccc(NC(=O)N[C@H]4CC[C@H](NCCOCCC#Cc5cccc6c5CN(C5CCC(=O)NC5=O)C6=O)CC4)cc3OC)nc2N1C1CCCC1 (stereo partly shown) [UB-181130]	100 to 1000 nM		< 10 nM		100 to 1000 nM	
CC[C@@H]1C(=O)N(C)c2cnc(Nc3ccc(C(=O)N[C@H]4CC[C@@H](NCCOCCC#Cc5cccc6c5CN([C@H]5CCC(=O)NC5=O)C6=O)CC4)cc3)nc2N1C1CCCC1 [UB-181179]						IC50 (MDA-MB-231 cells; MDA-MB-231 cells, read-out: Inhibitory activity IC50 on MDA-MB-231): 10 to 100 nM; IC50 (PC-3; PC-3 cells): 10 to 100 nM
NC(=O)c1ccccc1Nc1nc(Nc2ccc(C3CCN(C(=O)NC4CCN(C5CN(CCC#Cc6ccc7c(c6)CN(C6CCC(=O)NC6=O)C7=O)C5)CC4)CC3)cc2)ncc1Cl (stereo not shown) [UB-181199]		10 to 100 nM		< 10 nM	10 to 100 nM	
NC(=O)c1ccccc1Nc1nc(Nc2ccc(N3CCN(C(=O)N[C@H]4CC[C@@H](NCC(O)CC#Cc5ccc6c(c5)CN(C5CCC(=O)NC5=O)C6=O)CC4)CC3)cc2)ncc1Cl (stereo partly shown) [UB-181203]		100 to 1000 nM		100 to 1000 nM	100 to 1000 nM	
NC(=O)c1ccccc1Nc1nc(Nc2ccc(C3CCN(C(=O)N[C@H]4CC[C@@H](NCCCCOCCC#Cc5ccc6c(c5)CN(C5CCC(=O)NC5=O)C6=O)CC4)CC3)cc2)ncc1Cl (stereo partly shown) [UB-181205]		100 to 1000 nM		100 to 1000 nM	100 to 1000 nM	
O=C1CCC(N2Cc3cc(NC(=O)CCOCCOCCOCCN[C@H]4CC[C@@H](n5cc(-c6ccc(Nc7ncc8c(n7)-c7ccc(Cl)cc7C(c7c(F)cccc7F)=NC8)cc6)nn5)CC4)ccc3C2=O)C(=O)N1 (stereo partly shown) [UB- 180980]	> 1000 nM	100 to 1000 nM	< 10 nM	> 1000 nM		

More lines, main results first:

IC50 (MDA-MB-231 cells; [1])	IC50 (Daudi cells; Daudi cells)	IC50 (MV4;11 cells; [2])	IC50 (NCIH82 cells)	IC50 (PC-3; Homo sapiens, PC-3, PC-3 cells)	SMILES	other results
< 10 nM	10 to 100 nM	< 10 nM			CC[C@@H]1C(=O)N(C)c2cnc(Nc3ccc(C(=O)N[C@H]4CC[C@@H](NCCCCCC#Cc5cccc6c5CN(C5CCC(=O)NC5=O)C6=O)CC4)cc3OC)nc2N1C1CCCC1 (stereo partly shown) [UB-180978]	
100 to 1000 nM	10 to 100 nM	10 to 100 nM			CC[C@@H]1C(=O)N(C)c2cnc(Nc3ccc(-c4cn([C@H]5CC[C@@H](N(CCOCCC#Cc6cccc7c6CN(C6CCC(=O)NC6=O)C7=O)C(=O)OC(C)C(C)SSC[C@@H](NC(=O)[C@@H](CC(=O)O)NC(=O)[C@@H](CC(=O)O)NC(=O)[C@@H](CCCNC(=N)N)NC(=O)[C@@H](CC(=O)O)NC(=O)CC[C@H](NC(=O)c6ccc(NCc7cnc8nc(N)[nH]c(=O)c8n7)cc6)C(=O)O)C(=O)O)CC5)nn4)cc3OC)nc2N1C1CCCC1 (stereo partly shown) [UB-180979]	
10 to 100 nM	10 to 100 nM	< 10 nM			CC[C@@H]1C(=O)N(C)c2cnc(Nc3ccc(-c4cn([C@H]5CC[C@@H](NCCOCCCC#Cc6cccc7c6CN(C6CCC(=O)NC6=O)C7=O)CC5)nn4)cc3OC)nc2N1C1CCCC1 (stereo partly shown) [UB-180992]	
	> 1000 nM	100 to 1000 nM	> 1000 nM		O=C1CCC(N2Cc3c(C#CCCNCCOCCOCCNC(=O)c4ccc(Nc5ncc6c(n5)-c5ccc(Cl)cc5C(c5c(F)cccc5F)=NC6)cc4)cccc3C2=O)C(=O)N1 (stereo not shown) [UB-181028]	
	> 1000 nM	> 1000 nM	> 1000 nM		O=C1CCC(N2Cc3cc(C#CCCNCCOCCOCCNC(=O)c4ccc(Nc5ncc6c(n5)-c5ccc(Cl)cc5C(c5c(F)cccc5F)=NC6)cc4)ccc3C2=O)C(=O)N1 (stereo not shown) [UB-181029]	
100 to 1000 nM		10 to 100 nM		< 10 nM	CC[C@@H]1C(=O)N(C)c2cnc(Nc3ccc(-c4cn([C@H]5CC[C@@H](N(CCO)CCOCCC#Cc6cccc7c6CN(C6CCC(=O)NC6=O)C7=O)CC5)nn4)cc3OC)nc2N1C1CCCC1 (stereo partly shown) [UB-181052]	
100 to 1000 nM		< 10 nM		100 to 1000 nM	CC[C@@H]1C(=O)N(C)c2cnc(Nc3ccc(NC(=O)N[C@H]4CC[C@H](NCCOCCC#Cc5cccc6c5CN(C5CCC(=O)NC5=O)C6=O)CC4)cc3)nc2N1C1CCCC1 (stereo partly shown) [UB-181126]	
100 to 1000 nM		10 to 100 nM		100 to 1000 nM	CC[C@@H]1C(=O)N(C)c2cnc(Nc3ccc(-c4cn([C@H]5CC[C@@H](NCCOCCC#Cc6cccc7c6CN(C6CCC(=O)NC6=O)C7=O)CC5)nn4)nc3)nc2N1C1CCCC1 (stereo partly shown) [UB-181153]	
	10 to 100 nM	< 10 nM	10 to 100 nM	10 to 100 nM	NC(=O)c1ccccc1Nc1nc(Nc2ccc(C3CCN(C(=O)N[C@H]4CC[C@@H](NCCC#Cc5cccc6c5CN(C5CCC(=O)NC5=O)C6=O)CC4)CC3)cc2)ncc1Cl (stereo partly shown) [UB-181183]	
